Experimental data reported in patent US20150297623A1, “METHODS FOR TREATMENT OF PRIMARY CANCER AND CANCER METASTASIS” (THE BOARD OF REGENTS OF THE UNIVERSITY OF TEXAS SYSTEM, priority 2012, published 2015).

Assays:
MDA-MB-231 cells [1] = assay: Transwell cell migration assay, MDA-MB-231; format: cell-based, human; details: for effect on migration of MDA-MB-231 cells: 200 μM
Protocol: (§1) MLO-Y4 cells were seeded onto 150 mm dishes (Corning) and incubated for 24 hr to allow attachment, after which media was removed and changed with α-modified essential medium (α-MEM) without phenol red (Gibco) supplemented with 2.5% FBS and 2.5% BCS (Hyclone). MLO-Y4 cells were incubated in the absence or present of 20 μM AD in a 5% CO2 incubator at 37° C. for 48 hr and the CM was collected.
(§2) Migration assays were performed in transwell membrane filter inserts in 24-well tissue culture plates (BD Biosciences San Jose, Calif., USA). The transwell membrane filter inserts contained 6.5-mm diameter, 8-μm pore size, […] thick polycarbonate membranes. The breast cancer cell lines were harvested and resuspended in CM from MLO-Y4 cells with or without other compounds. Five-hundred microliter breast cancer cell suspensions were added to the upper side of the inserts at a density of 10×10^4 cells/insert and 750 μl CM with or without other compounds was added to the lower wells. Cells were incubated at 37° C. for 18-20 hr. […] The number of migrated cells in 5 fields of view per insert was counted under a light microscope at magnification 10×.

MDA-MB-231 cells [2] = assay: WST-1 cell proliferation assay; format: cell-based, human; details: for effect on cell proliferation: concentrations as used in migration assay / various concentrations
Protocol: Cell viability was assessed using WST-1 (Water Soluble Tetrazolium salts) assay (Roche). A single cell suspension was plated in 96-well plates at 2.0×10^4 cells/well and allowed to attach to the plates at 37° C. for 2 hr. […] After the treatment, cell viability was measured by adding 10 μl of Cell Proliferation Reagent WST-1 to each well and incubated for 1 hr at 37° C. in a 5% CO2 incubator. The cell proliferation was measured at an […] wavelength of 450 nm with a Synergy HT Multi-Mode Microplate Reader (Biotek).

[3] = test system: Py8119 mouse mammary carcinoma cells; assay: Transwell cell migration assay, Py8119; format: cell-based
Protocol: as §1, §2

MDA-MB-231 cells [4] = assay: Soft agar colony formation assay (anchorage-independent growth); format: cell-based, human; details: about 2 weeks (control 82±4.5)
Protocol: For anchorage-independent cell growth, MDA-MB-231 cells were plated in 0.4% agarose with complete medium supplemented with either 100 μM ATPγS or 200 μM adenosine on top of a 0.8% agarose base supplemented with complete medium. Cells were maintained for about 2 weeks before staining with p-iodonitrotetrazolium violet (Sigma-Aldrich, St. Louis, Mo.). Images were captured by using a scanner and the numbers of colonies were counted.

MDA-MB-231 cells [5] = assay: Orthotopic MDA-MB-231 xenograft in mammary fat pads of nude mice; format: in vivo, mouse; details: for tumor growth rate in comparison to the control group: 400 μmol per mouse IP three times a week
Protocol: To test if ATP has a similar, inhibitory effect on tumor growth in vivo, the inventors used an orthotopic mouse model. MDA-MB-231 cells were orthotopically implanted into the mammary fat pads of athymic female nude mice. After the mice were randomly assigned into 3 different treatment groups, the mice were treated with or without ATPγS or adenosine. The ATPγS and adenosine were administered through IP injections at 400 μmol per mouse three times a week. The control mice were injected IP with saline. Dosages were determined by a previous study showing no toxicity from IP injections of up to 50 mM of adenine nucleotides into mice for 10 days. Tumor sizes were measured once every three to four days throughout the treatment period. At the end of the study, the tumors were excised and weighed. […] The reduced mean tumor volume of the treatment group was statistically significant after 17 days of ATPγS treatment. […] Additionally, the adenosine-treated group had 50% increased tumor sizes compared to the control group tumors (FIG. 7B).
MDA-MB-231 cells were injected subcutaneously in the mammary fat pad of 4-week-old female nu/nu athymic nude mice. Each mouse received bilateral subcutaneous inoculation in both the left and right inguinal mammary fat pad areas with 100 μl of cell suspension containing ˜1×10^7 cells/ml in serum-free media. Animals were randomly assigned to 3 different groups, and solid tumors were allowed to form up to about 5 mm^3 volume before treatments began. ATPγS, at 400 μmol/500 μl saline, adenosine, at 400 μmol/500 μl saline, or 500 μl of saline, were administered intraperitoneally (IP) three times a week for 3 weeks. The growth of xenograft tumors was monitored twice a week and tumor size was measured with a caliper in two dimensions. Tumor volumes were calculated with the equation V=(L×W^2)×0.5 (mm^3), where L is length and W is width of a tumor.

[6] = test system: Py8119 mammary carcinoma cells; assay: Intratibial injection of Py8119/Luc-GFP cells, bioluminescence imaging; format: in vivo, mouse
Protocol: To assess how systemic treatment with ATPγS may affect the growth of breast cancer cells in the bone microenvironment of a syngeneic host, the inventors performed intratibial injections in wild-type C57b1/6 female mice using the mouse mammary carcinoma cell line Py8119. The mammary tumor cells were injected into the right tibias of the female mice, and the tumor growth was monitored with whole animal imaging once a week for 4 weeks. The mice were treated with IP injection of saline supplemented with or without 400 μmol ATPγS three times a week. […] Quantification data (lower panels) further confirmed the significant decrease of tumor growth in bone with the treatment of ATPγS. Mice were anesthetized by isoflurane and were also given buprenorpine-HCl (0.3 mg/ml) as an analgesic. Py8119 cells expressing Luc-GFP (1×10^5 in 20 μl of PBS) were inoculated into the bone marrow area of right tibias through the pre-made hole by a Hamilton syringe fitted with a 30-gauge needle. […] Intratibial tumor growth was monitored with bioluminescence imaging with a Xenogen IVIS-Spectrum imaging system (Xenogen, Alameda, Calif., USA) every week starting from 3 days after tumor cell inoculation. […] Analysis was performed using LivingImage software (Xenogen) by measurement of photon flux (measured in photons/sec/cm^2/steradian) with a region of interest (ROI) drawn around the bioluminescence signal to be measured. […]

Nc1ncnc2c1ncn2[C@@H](C=O)O[C@@H](C=O)COP(=O)(O)OP(=O)(O)OP(=O)(O)O [oATP]
effect on the inhibitory effect of CM-AD on MDA-MB-231 cell migration (MDA-MB-231 cells [1]; 300 μM oATP): significantly attenuated

Nc1ncnc2c1ncn2[C@@H]1O[C@H](COP(=O)(O)OP(=O)(O)OP(=O)(O)O)[C@@H](O)[C@H]1O [ATP, adenosine-5′-triphosphate]
number of migrated MDA-MB-231 cells (MDA-MB-231 cells [1]; 200 μM ATP added to CM from non-AD-treated MLO-Y4 cells (control 127±2)): 188±33.5 | number of migrated MDA-MB-231 cells (MDA-MB-231 cells [1]; 200 μM ATP added to CM-AD (control 88±10.7)): 153±21.1 | effect on migration of MDA-MB-231 cells (MDA-MB-231 cells [1]; 20 hr): increased migration | number of migrating MDA-MB-231 cells (MDA-MB-231 cells [1]; compound 50 μM): 100±17.7 cells | number of migrating MDA-MB-231 cells (MDA-MB-231 cells [1]; compound 200 μM): 257±26 cells | number of migrating MDA-MB-231 cells (MDA-MB-231 cells [1]; compound 400 μM): 240±0.9 cells | effect on cell proliferation (MDA-MB-231 cells [2]): not caused by alterations of cell proliferation | number of migrated Py8119 cells ([3]; 400 μM ATP in CM (control 254±25.9)): 159±7.8 cells | number of migrated Py8119 cells ([3]; 400 μM ATP in CM-AD (control 127±0.3)): 88±10.3 cells

2′(3′)-O-(4-Benzoylbenzoyl)adenosine-5′-triphosphate tri(triethylammonium) salt [BzATP]
number of migrating MDA-MB-231 cells (MDA-MB-231 cells [1]; compound 10 μM): 99±7.8 cells | number of migrating MDA-MB-231 cells (MDA-MB-231 cells [1]; compound 100 μM): 64±4.4 cells | number of migrating MDA-MB-231 cells (MDA-MB-231 cells [1]; compound 200 μM): 39±2.6 cells | effect on cell proliferation (WST-1) (MDA-MB-231 cells [2]; 400 μM): significant reduction | effect on cell proliferation (WST-1) (MDA-MB-231 cells [2]; concentrations 1-200 μM): minimal effects

Nc1ncnc2c1ncn2[C@@H]1O[C@H](COP(=O)([O-])OP(=O)([O-])OP([O-])([O-])=S)[C@@H](O)[C@H]1O.[Li+].[Li+].[Li+].[Li+] [ATPγS, adenosine 5′-[γ-thio]triphosphate tetralithium salt]
number of migrated MDA-MB-231 cells (MDA-MB-231 cells [1]; 100 μM ATPγS in control CM (control 112±2.4)): 63±9.6 cells | number of migrating MDA-MB-231 cells (MDA-MB-231 cells [1]; compound 50 μM): 46±9.3 cells | number of migrating MDA-MB-231 cells (MDA-MB-231 cells [1]; compound 100 μM): 33±3.3 cells | number of migrating MDA-MB-231 cells (MDA-MB-231 cells [1]; compound 200 μM): 11±1.7 cells | number of migrating MDA-MB-231 cells (MDA-MB-231 cells [1]; compound 400 μM): 9±1.5 cells | colony formation of MDA-MB-231 cells in soft agar (MDA-MB-231 cells [4]; 100 μM ATPγS): 47±6.2 colonies | effect on migration of Py8119 cells ([3]; 100 μM ATPγS in CM / CM-AD): decreased | decrease of size of excised tumors vs control group (MDA-MB-231 cells [5]; 400 μmol ATPγS IP three times a week, post mortem): over 4 fold | tumor growth rate in comparison to the control group (MDA-MB-231 cells [5]): significantly reduced | tumor growth in the tibias (bioluminescence) ([6]; 400 μmol ATPγS IP three times a week): significantly inhibited | tumor burden (bioluminescence signals, dorsal and ventral) ([6]; 400 μmol ATPγS IP, after 4 weeks of treatment): dramatic reduction

Nc1ncnc2c1ncn2[C@@H]1O[C@H](CO)[C@@H](O)[C@H]1O [adenosine]
effect on MDA-MB-231 cell migration (MDA-MB-231 cells [1]; 200 μM adenosine in CM from MLO-Y4 cells): increased | effect on migration of MDA-MB-231 cells (MDA-MB-231 cells [1]; 20 hr): increases | effect on cell proliferation (MDA-MB-231 cells [2]): minimal effects | colony formation of MDA-MB-231 cells in soft agar (MDA-MB-231 cells [4]; 200 μM adenosine): 132±13.7 colonies | increase of tumor sizes compared to control group (MDA-MB-231 cells [5]; 400 μmol adenosine IP three times a week, post mortem): 50% | tumor growth rate in comparison to the control group (MDA-MB-231 cells [5]): increase

CCCn1c(=O)c2[nH]c(-c3ccc(OCC(=O)Nc4ccc(C#N)cc4)cc3)nc2n(CCC)c1=O [MRS1754, N-(4-Cyanophenyl)-2-[4-(2,3,6,7-tetrahydro-2,6-dioxo-1,3-dipropyl-1H-purin-8-yl)phenoxy]-acetamide]
effect on the inhibitory effect of CM-AD on cell migration (MDA-MB-231 cells [1]; 500 nM MRS1754): further augmented the inhibitory effect | effect on the stimulatory effect of ATP on migration (MDA-MB-231 cells [1]; 500 nM MRS1754, 200 μM ATP, in CM / CM-AD): attenuated | effect on adenosine-induced increase of MDA-MB-231 cell migration (MDA-MB-231 cells [1]; 500 nM MRS1754, 200 μM adenosine, in CM): completely attenuated | effect on the increase of migration caused by apyrase treatment (MDA-MB-231 cells [1]; 500 nM MRS1754, apyrase 5 units/ml, in CM): significantly attenuated | effect on adenosine-enhanced migration of Py8119 cells [3]: inhibited

apyrase
increase of MDA-MB-231 cell migration (MDA-MB-231 cells [1]; apyrase 5 units/ml in CM-AD): 7.7 fold | increase of MDA-MB-231 cell migration (MDA-MB-231 cells [1]; apyrase 5 units/ml in untreated CM): 2.5 fold

CCOc1nc2c(N)ncnc2n1CC [ANR94, 8-Ethoxy-9-ethyl-9H-purin-6-amine]
effect on ATP-increased migration of MDA-MB-231 cells (MDA-MB-231 cells [1]; 100 μM ANR94, 200 μM ATP, 20 hr): attenuated | effect on adenosine-increased migration of MDA-MB-231 cells (MDA-MB-231 cells [1]; 100 μM ANR94, 200 μM adenosine, 20 hr): attenuated

CCN(CC)c1ncnc2c1ncn2[C@@H]1O[C@H](COP(=O)(O)OP(=O)(O)C(Br)(Br)P(=O)(O)O)[C@@H](O)[C@H]1O [ARL67156]
effect on the stimulatory effect of higher dosage of ATP on migration (MDA-MB-231 cells [1]; 200 μM ARL67156, 200 μM ATP): attenuated | effect on cell proliferation (MDA-MB-231 cells [2]): not caused by changes in cell proliferation
